Usually IC50 stands for the midpoint of a concentration-inhibition curve. High values mean a need for much substance, low ones inhibition by little substance. In general, EC50 refers to the concentration that produces a half-maximal response. Broadly, the inhibition is how much of the control response was suppressed.

Results on eleven molecules are retold here after publication PMC7574915 (Science Translational Medicine, 2020).

One series has as its target 3CLpro of SARS-CoV (Severe acute respiratory syndrome coronavirus, UniProt P0C6X7). In words: biochemical.
Series [1] deals with FIPV. Kind of series: microbe, parasite or virus in culture. The conditions noted are these: Alphacoronavirus 1, CRFK, 24 h, read-out: EC50 in cell culture, FIPV. The format is cell-based, feline infectious peritonitis virus.
For the next series, the target named is 3CLpro of MERS-CoV (Middle East respiratory syndrome-related coronavirus, UniProt K9N7C7). Kind of series: biochemical.
In the next series the target is T1, 3CLpro of SARS-CoV-2 (Severe acute respiratory syndrome coronavirus 2, UniProt P0DTD1).
T1 construct: His6 (N); made in house; host or cells: E. coli (inferred from the pET-28a(+) vector)
In words: biochemical.

For another series, the system named is MHV. Kind of series: microbe, parasite or virus in culture. The format is cell-based, mouse hepatitis virus. The note with it: Murine coronavirus, L929, 24 h, read-out: EC50 in cell culture, MHV.
Another series relates to MERS-CoV. Kind of series: microbe, parasite or virus in culture. The format is cell-based.
For series [2], the system named is SARS-CoV-2. In words: microbe, parasite or virus in culture. The note with it: Severe acute respiratory syndrome coronavirus 2, Vero C1008, read-out: EC50 in cell culture, SARS-CoV-2. The format is cell-based.
Series [3] concerns SARS-CoV-2. Kind of series: microbe, parasite or virus in culture. Format: cell-based.
For series [4], the system named is MERSMA-CoV. The note with it: mouse, in vivo, 50 mg/kg/day.
Series [5] deals with MERSMA-CoV. The note with it: mouse, in vivo.
For series [6], the system named is FIPV. The conditions noted are these: read-out: EC50 in cell culture, FIPV; cited from earlier work.
In series [7] the test system is feline infectious peritonitis (FIP). The note with it: in vivo; cited from earlier work.
Where [8] appears, read: Middle East respiratory syndrome-related coronavirus, Huh-7, read-out: EC50 in cell culture, MERS-CoV.

Values joined by “and” are separate entries in the source; they are usually repeats but may differ in a detail not shown here. Identical values can stand only once. Like-named read-outs stand apart in the source and are kept apart here. Where only a bound is given, the exact number is not on record here.

3CLpro of MERS-CoV, sequence (K9N7C7 3248-3553 limits assumed): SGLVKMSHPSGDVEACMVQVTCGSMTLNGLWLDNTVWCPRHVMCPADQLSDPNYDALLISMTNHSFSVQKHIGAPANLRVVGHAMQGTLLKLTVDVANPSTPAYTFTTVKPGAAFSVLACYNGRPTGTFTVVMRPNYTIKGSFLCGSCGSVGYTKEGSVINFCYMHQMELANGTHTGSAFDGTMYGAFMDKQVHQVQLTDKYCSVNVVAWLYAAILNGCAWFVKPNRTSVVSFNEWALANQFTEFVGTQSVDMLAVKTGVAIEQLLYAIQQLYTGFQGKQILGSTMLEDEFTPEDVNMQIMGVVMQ

As to `CC(C)C[C@H](NC(=O)OC1CCCCC1)C(=O)N[C@H](C=O)C[C@@H]1CCNC1=O` [Compound 6a], the CC50 in the series “in vitro” is more than 100000 nM. In addition, the IC50 turned out to be 3900 ± 300 nM at 3CLpro of SARS-CoV, 350 ± 100 nM against 3CLpro of MERS-CoV and 820 ± 100 nM on 3CLpro of SARS-CoV-2. In addition, the EC50 in the series with FIPV [1] was found to be 90 ± 20 nM; in the series with MHV it was 120 ± 50 nM.
Consider `CCCC1CCC(OC(=O)N[C@@H](CC(C)C)C(=O)N[C@H](C=O)C[C@@H]2CCNC2=O)CC1` (stereo partly shown) [Compound 6c], for which the CC50 in the series “in vitro” was more than 100000 nM. Besides, in the series on MERS-CoV, the “EC50 in cell culture, MERS-CoV” value is recorded as “submicromolar”. The EC50 in the series on MERS-CoV (setting [8]) was 50 ± 60 nM; in the series with SARS-CoV-2 [2], 250 ± 150 nM; in the series on FIPV [1] it was 120 ± 10 nM; in the series on MHV, 130 ± 50 nM. 280 ± 50 nM corresponded to half-maximal inhibition on 3CLpro of SARS-CoV-2 (IC50).
In the case of `CCCCC1CCC(OC(=O)N[C@@H](CC(C)C)C(=O)N[C@H](C=O)C[C@@H]2CCNC2=O)CC1` (stereo partly shown) [Compound 6e], the CC50 in the series “in vitro” came to 63300 ± 2300 nM. Moreover, the IC50 against 3CLpro of SARS-CoV stood at 900 ± 100 nM; against 3CLpro of MERS-CoV, 150 ± 20 nM; on 3CLpro of SARS-CoV-2 it was 170 ± 60 nM. Further, the EC50 is 150 ± 140 nM in the series with SARS-CoV-2 [2], 220 ± 30 nM in the series on FIPV [1] and 120 ± 40 nM with MHV. Besides, the “inhibition of viral replication” value in the series with SARS-CoV-2 [3] is “about 10 fold”. In addition, in the series on SARS-CoV-2 [3] (Severe acute respiratory syndrome coronavirus 2, Epithelial cell, read-out: inhibition of virus replication), the inhibition at 0.5 µM is approximately 50%.
In “in vitro”, `CC(C)C[C@H](NC(=O)OC1CCC(F)(F)CC1)C(=O)N[C@H](C=O)C[C@@H]1CCNC1=O` [Compound 6h] displayed a CC50 of more than 100000 nM. The half-maximal inhibitory concentration (IC50) was determined as 2300 ± 300 nM at 3CLpro of SARS-CoV, 70 ± 10 nM on 3CLpro of MERS-CoV and 430 ± 100 nM at 3CLpro of SARS-CoV-2. Also, the EC50 in the series on SARS-CoV-2 [2] came out at 900 ± 800 nM; in the series with FIPV [1], 120 ± 50 nM; in the series on MHV it was 80 ± 50 nM. In addition, the body weight result in the series on MERSMA-CoV [4] (ip) is “continued to lose body weight until 6 dpi but then started to gain weight from 9 dpi”. Besides, the “survival at the end of the study (15 dpi)” value with MERSMA-CoV [4] (ip) was 40%.
For `CC(C)C[C@H](NC(=O)OCC1CCC(F)(F)CC1)C(=O)N[C@H](C=O)C[C@@H]1CCNC1=O` [Compound 6j], in the series with MERSMA-CoV [5], the “Edema in the lungs (score 0 to 4)” value was “reduced compared to control mice”, the Lung virus titers entry is “decreased”, the “Scores for hyaline membrane formation (0 to 4)” value was “reduced in 6j-treated mice but were not statistically different from control mice” and the “lung lesions (histopathology)” value was “few observed lesions”. Further, in “in vitro”, the CC50 is more than 100000 nM. Also, the “EC50 in cell culture, MERS-CoV” value with MERS-CoV is on record as “submicromolar”. Moreover, in the series with MERS-CoV (setting [8]), the EC50 was found to be 40 ± 20 nM. Also, the EC50 in the series with FIPV [1] was found to be 80 ± 20 nM. In addition, in the series with SARS-CoV-2 [3], the “inhibition of viral replication” value is “about 10 fold” and the “inhibition of virus replication” value amounted to 100 fold. For the same molecule, the “Virus titers (log10)” value with SARS-CoV-2 [3] (48 hours) was 6.35 ± 0.02 log10 and 6.10 ± 0.09 log10 and 6.30 ± 0.1 log10. The body weight entry in the series on MERSMA-CoV [4] was “regained the lost weight by 15 dpi”. Further, in the series with MERSMA-CoV [4] (ip), the body weight entry is recorded as “rapidly recovered from body weight loss starting at 3 dpi” and the “survival at the end of the study (15 dpi)” value is reported as “all mice treated with compound 6j were alive”.
`CC(C)C[C@H](NC(=O)OC1CCCCC1)C(=O)N[C@@H](C[C@@H]1CCNC1=O)C(O)S(=O)(=O)O` (stereo partly shown) [Compound 7a] showed a CC50 in “in vitro” of more than 100000 nM. For the same molecule, in the series with MERS-CoV, the “EC50 in cell culture, MERS-CoV” value is listed as “submicromolar”. Besides, the EC50 with MERS-CoV (setting [8]) stood at 80 ± 100 nM; with FIPV [1], 70 ± 20 nM; in the series with MHV, 80 ± 30 nM. For the same molecule, the results for the IC50 on 3CLpro of SARS-CoV, against 3CLpro of MERS-CoV and against 3CLpro of SARS-CoV-2 were 3800 ± 400 nM, 150 ± 10 nM and 650 ± 60 nM, respectively.
In “in vitro”, `CCCC1CCC(OC(=O)N[C@@H](CC(C)C)C(=O)N[C@@H](C[C@@H]2CCNC2=O)C(O)S(=O)(=O)O)CC1` (stereo partly shown) [Compound 7c] showed a CC50 of more than 100000 nM. The EC50 in the series with FIPV [1] came to 170 ± 30 nM; with MHV, 160 ± 80 nM. Further, the IC50 on 3CLpro of MERS-CoV came to 100 ± 40 nM; at 3CLpro of SARS-CoV-2, 230 ± 50 nM.
With `CCCCC1CCC(OC(=O)N[C@@H](CC(C)C)C(=O)N[C@@H](C[C@@H]2CCNC2=O)C(O)S(=O)(=O)O)CC1` (stereo partly shown) [Compound 7e], in the series “in vitro”, the CC50 is 59100 ± 3500 nM. Further, in the series on MERS-CoV, the “EC50 in cell culture, MERS-CoV” value was “submicromolar”. The EC50 was determined as 530 ± 200 nM in the series with MERS-CoV (setting [8]), 170 ± 20 nM with FIPV [1] and 130 ± 20 nM in the series on MHV. Also, the values for the IC50 at 3CLpro of SARS-CoV, against 3CLpro of MERS-CoV and against 3CLpro of SARS-CoV-2 were 1000 ± 100 nM, 130 ± 60 nM and 200 ± 60 nM, respectively.
On to `CC(C)C[C@H](NC(=O)OC1CCC(F)(F)CC1)C(=O)N[C@@H](C[C@@H]1CCNC1=O)C(O)S(=O)(=O)O` (stereo partly shown) [Compound 7h], for which the CC50 in “in vitro” is more than 100000 nM. The “EC50 in cell culture, MERS-CoV” value with MERS-CoV was “submicromolar”. Further, the EC50 came out at 210 ± 100 nM in the series on MERS-CoV (setting [8]), 120 ± 60 nM with FIPV [1] and 110 ± 80 nM in the series with MHV. Moreover, the IC50 against 3CLpro of SARS-CoV amounted to 2200 ± 100 nM; against 3CLpro of MERS-CoV it was 80 ± 10 nM; against 3CLpro of SARS-CoV-2, 410 ± 100 nM.
As to `CC(C)C[C@H](NC(=O)OCC1CCC(F)(F)CC1)C(=O)N[C@@H](C[C@@H]1CCNC1=O)C(O)S(=O)(=O)O` (stereo partly shown) [Compound 7j], the CC50 in the series “in vitro” is more than 100000 nM. Moreover, the IC50 against 3CLpro of SARS-CoV was found to be 1100 ± 100 nM; against 3CLpro of MERS-CoV it was 100 ± 10 nM; at 3CLpro of SARS-CoV-2, 450 ± 100 nM. The EC50 with FIPV [1] worked out at 70 ± 10 nM; with MHV it was 160 ± 50 nM.
Regarding `CC(C)C[C@H](NC(=O)OCc1ccccc1)C(=O)N[C@@H](C[C@@H]1CCNC1=O)C(O)S(=O)(=O)O` (stereo partly shown) [GC376, reference compound], the EC50 with FIPV [6] was 40 nM; with MERS-CoV (setting [8]) it was approximately 1000 nM; in the series on MERS-CoV (read-out: EC50 in cell culture, MERS-CoV), 900 ± 200 nM. The molecule further showed a CC50 in “in vitro” of more than 100000 nM. In addition, the “progression of FIP” value in series [7] was “reversed the progression of FIP and resulted in clinical remission”.
